Literature values, collected in PMC6966182 (CPT: Pharmacometrics & Systems Pharmacology, 2019).
Like-named read-outs stand apart in the source and are kept apart here.

Key:
HIV = details: TFV‐DP concentration in PBMC
[1] = not given; remark: listed apart in the source
OAT3 = details: read-out: OAT3 Transporter (K i) (renal); SimCYP input
[2] = not given; remark: listed apart in the source
[3] = absorption rate constant, SimCYP input
[4] = not given; remark: listed apart in the source
[5] = not given; remark: listed apart in the source
PBMC = details: SimCYP input
[6] = SD TFV + PRO, healthy volunteers, GM (95% confidence interval)
[7] = SD TFV–PRO, healthy volunteers, GM (95% confidence interval)

## CC(Cn1cnc2c(N)ncnc21)OCP(=O)(O)OP(=O)(O)OP(=O)(O)O (stereo in doubt) [TFV‐DP, tenofovir di‐phosphate]
HIV
  EC90: 16 fmol/10^6 cells
At 24 hours
  increase at the intracellular level with PRO: ~ 30%
Daily TDF administration
  accumulation of TFV‐DP in PBMCs: greater than eightfold

## CCCN(CCC)S(=O)(=O)c1ccc(C(=O)O)cc1 [PRO, probenecid]
[1]
  maximum tolerated dose: 2 g
OAT3
  Ki: […]

## C[C@H](Cn1cnc2c(N)ncnc21)OCP(=O)(O)O [TFV, tenofovir]
[2]; [6]
  AUC0‐INF OBS: 6,349 (5,598–7,200) ng • hour/mL
  Cmax OBS: 538 (494–585) ng/mL
[2]; [7]
  AUC0‐INF OBS: 3,973 (3,576–4,415) ng • hour/mL
  CLr OBS: 15.4 (12.2–19.4) L/hour
  Cmax OBS: 529 (451–620) ng/mL
[2]; in the presence of 2 g PRO, fasted healthy volunteers, as predicted
  increase in single‐dose TFV overall plasma exposure (AUC0‐INF): 60%
[2]; in the presence of 2 g PRO, single dose, as predicted
  change in TFV Cmax: nearly unchanged
[3]
  k a: 1.03 1/h11
[4]
  fraction unbound (f u): > 0.9
[5]
  TFV in circulation available for transporter‐mediated secretion: 20–30%
  bioavailability: ~ 25%
[5]; TDF given with high‐fat or light meals, ref Other studies
  increase in TFV systemic exposure with food: ~ 35%
PBMC
  Efflux Clint,t (PBMC additional organ): 1.288 µL/minute11, 12
  Uptake J max (PBMC additional organ): 10.44 pmol/minute/whole organ11, 12
  Uptake K m (PBMC additional organ): 0.355 µM11, 12
